Measured values as given in ChEMBL document CHEMBL3627634, “Synthesis of novel benzohydrazone-oxadiazole hybrids as β-glucuronidase inhibitors and molecular modeling studies” (Bioorg Med Chem, 2015).

Target: T1, Beta-glucuronidase (Bos taurus, UniProt A3KMY8)
T1 sequence (A3KMY8 whole entry): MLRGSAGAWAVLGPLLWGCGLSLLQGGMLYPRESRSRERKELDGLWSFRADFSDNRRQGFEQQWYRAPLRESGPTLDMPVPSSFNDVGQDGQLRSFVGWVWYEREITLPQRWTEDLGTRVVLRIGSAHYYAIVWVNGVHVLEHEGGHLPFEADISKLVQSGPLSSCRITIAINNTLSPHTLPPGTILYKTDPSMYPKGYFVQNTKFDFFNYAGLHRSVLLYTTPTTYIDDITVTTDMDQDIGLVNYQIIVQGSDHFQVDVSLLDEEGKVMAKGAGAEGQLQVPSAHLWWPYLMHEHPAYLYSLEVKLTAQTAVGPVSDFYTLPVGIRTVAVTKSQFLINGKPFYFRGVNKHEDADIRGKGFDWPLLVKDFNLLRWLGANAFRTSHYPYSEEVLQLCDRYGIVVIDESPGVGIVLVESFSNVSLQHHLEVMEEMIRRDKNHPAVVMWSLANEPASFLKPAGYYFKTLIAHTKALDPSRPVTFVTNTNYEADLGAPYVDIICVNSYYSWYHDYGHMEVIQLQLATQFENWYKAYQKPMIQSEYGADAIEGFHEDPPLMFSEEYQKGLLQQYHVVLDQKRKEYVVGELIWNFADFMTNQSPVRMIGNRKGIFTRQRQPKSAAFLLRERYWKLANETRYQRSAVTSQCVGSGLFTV
Assay: Inhibition of bovine liver beta-glucuronidase using p-nitrophenyl-beta-D-glucuronide as substrate assessed as p-nitrophenol formation after 30 mins by multiplate reader analysis; call rule not given here

IC50 (read-out: IC50)	IC50	Structure (SMILES)
34.5 µM	–	O=C(N/N=C/c1cccc(O)c1)c1ccc(-c2nnc(-c3ccccc3O)o2)cc1
–	Not Active	Cc1ccccc1/C=N/NC(=O)c1ccc(-c2nnc(-c3ccccc3O)o2)cc1
–	Not Active	Cc1cccc(/C=N/NC(=O)c2ccc(-c3nnc(-c4ccccc4O)o3)cc2)c1
–	Not Active	O=C(N/N=C/c1ccccc1Cl)c1ccc(-c2nnc(-c3ccccc3O)o2)cc1
–	Not Active	O=C(N/N=C/c1cccnc1)c1ccc(-c2nnc(-c3ccccc3O)o2)cc1
–	Not Active	O=C(N/N=C/c1ccncc1)c1ccc(-c2nnc(-c3ccccc3O)o2)cc1
91.4 µM	–	O=C(N/N=C/c1ccccc1O)c1ccc(-c2nnc(-c3ccccc3O)o2)cc1
42.3 µM	–	O=C(N/N=C/c1ccccn1)c1ccc(-c2nnc(-c3ccccc3O)o2)cc1
108 µM	–	O=C(N/N=C/c1ccccc1F)c1ccc(-c2nnc(-c3ccccc3O)o2)cc1
–	Not Active	O=C(N/N=C/c1cccc(F)c1)c1ccc(-c2nnc(-c3ccccc3O)o2)cc1
–	Not Active	O=C(N/N=C/c1cccc(Cl)c1)c1ccc(-c2nnc(-c3ccccc3O)o2)cc1

The next lines start with the compound.

Structure (SMILES)	IC50 (read-out: IC50)	IC50
O=C(N/N=C/c1ccc(O)cc1)c1ccc(-c2nnc(-c3ccccc3O)o2)cc1	18.5 µM	–
O=C(N/N=C/c1ccc(O)c(O)c1)c1ccc(-c2nnc(-c3ccccc3O)o2)cc1	29.2 µM	–
O=C(N/N=C/c1cc(O)ccc1O)c1ccc(-c2nnc(-c3ccccc3O)o2)cc1	15.1 µM	–
O=C(N/N=C/c1cccc([N+](=O)[O-])c1)c1ccc(-c2nnc(-c3ccccc3O)o2)cc1	64.1 µM	–
O=C(N/N=C/c1ccc([N+](=O)[O-])cc1)c1ccc(-c2nnc(-c3ccccc3O)o2)cc1	44.2 µM	–
O=C(N/N=C/c1c(O)cc(O)cc1O)c1ccc(-c2nnc(-c3ccccc3O)o2)cc1	82.2 µM	–
COc1ccc(/C=N/NC(=O)c2ccc(-c3nnc(-c4ccccc4O)o3)cc2)cc1O	7.14 µM	–
Cc1ccc(/C=N/NC(=O)c2ccc(-c3nnc(-c4ccccc4O)o3)cc2)cc1	–	Not Active
O=C(N/N=C/c1cc(O)c(O)cc1O)c1ccc(-c2nnc(-c3ccccc3O)o2)cc1	21.1 µM	–
O=C(N/N=C/c1ccc(Cl)cc1)c1ccc(-c2nnc(-c3ccccc3O)o2)cc1	86.1 µM	–
O=C(N/N=C/c1ccccc1[N+](=O)[O-])c1ccc(-c2nnc(-c3ccccc3O)o2)cc1	–	Not Active
COc1ccc(O)c(/C=N/NC(=O)c2ccc(-c3nnc(-c4ccccc4O)o3)cc2)c1	88.1 µM	–
COc1ccccc1/C=N/NC(=O)c1ccc(-c2nnc(-c3ccccc3O)o2)cc1	–	Not Active
O=C(N/N=C/c1ccc(F)cc1)c1ccc(-c2nnc(-c3ccccc3O)o2)cc1	–	Not Active
